Data reported in patent US20050209278A1, “Piperidinyl- and piperazinyl-sulfonylmethyl hydroxamic acids and their use as protease inhibitors” (priority 2002, published 2005).
Read-outs that look alike come from different tables or passages of the source.

Tests used:
MMP-14 = target: T1, MMP-14 (Homo sapiens, UniProt P50281); experiment: In vitro MMP inhibition, Ki determination (fluorogenic substrate II); type: biochemical; details: read-out: MMP-14 Ki
T1 construct: The catalytic domain enzyme was expressed in E. coli inclusion bodies, solubilized in urea; made in house
Procedure, shortened: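 E. coli-expressed, refolded MMP-14 catalytic domain, activated with APMA or trypsin, in 100 mM Tris-HCl pH 7.5, 100 mM NaCl, 10 mM CaCl2, 0.05% Brij-type detergent. Apparent Ki by Morrison-equation regression of velocity vs inhibitor and enzyme concentration.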

MMP-13 = target: T2, MMP-13 (Homo sapiens, UniProt P45452); experiment: as above; type: biochemical; details: read-out: MMP-13 Ki
T2 construct: made in house; host or cells: baculovirus / insect cells
Procedure, shortened: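 Ki determined with human recombinant MMP-13, baculovirus-expressed as proenzyme and activated with APMA. Fluorogenic MCA/Dpa substrate II at 4 μM (at or below Km) with low enzyme in Tris buffer pH 7.5 with CaCl2. Incubation was 1 h at room temperature, with fluorescence read at 330/420 nm.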

Structure (SMILES)	Ki (MMP-14; value outside parentheses) [nM]	Ki (MMP-13; value outside parentheses) [nM]	Ki (MMP-14; value not in parenthesis) [nM]	Ki (MMP-13; value not in parenthesis) [nM]
CCCCOc1ccc(N2CCN(S(=O)(=O)C3(C(=O)NO)CCN(c4ccc(O)nn4)CC3)CC2)cc1 [Example 283]	549	0.19		
O=C(NO)C1(S(=O)(=O)N2CCN(c3ccc(-c4ccccc4)cc3)CC2)CCOCC1 [Example 76]			358	0.4
CCCCCc1ccc(N2CCN(S(=O)(=O)C3(C(=O)NO)CCN(C4CC4)CC3)CC2)cc1 [Example 272]	4350	0.33		
CCCCOc1ccc(N2CCN(S(=O)(=O)C3(C(=O)NO)CCN(CC4CC4)CC3)CC2)cc1 [Example 298]	> 10000	0.702		
C#CCOC(=O)N1CCC(C(=O)NO)(S(=O)(=O)N2CCN(c3ccc(OCCCC)cc3)CC2)CC1 [Example 98]			1620	0.38
O=C(NO)C1(S(=O)(=O)N2CCN(c3ccc(OCCCC(F)(F)F)cn3)CC2)CCOCC1 [Example 83]			981	0.048
COCCN1CCC(C(=O)NO)(S(=O)(=O)N2CCN(c3ccc(OCCCCF)cc3)CC2)CC1 [Example 88]			2760	0.18
CCN1CCC(C(=O)NO)(S(=O)(=O)N2CCN(c3ccc(OCCCC(F)(F)F)cc3)CC2)CC1 [Example 78]			> 10000	0.43
CCCCOc1ccc(N2CCN(S(=O)(=O)C3(C(=O)NO)CCN(C(=O)CC(F)(F)F)CC3)CC2)cc1 [Example 265]	3790	0.637		
CCCCOc1ccc(N2CCN(S(=O)(=O)C3(C(=O)NO)CCOCC3)CC2)c(F)c1 [Example 90]			4550	0.39
CCCCOc1ccc(N2CCN(S(=O)(=O)C3(C(=O)NO)CCN(c4ccc(C)nn4)CC3)CC2)cc1 [Example 275]	818	0.216		
O=C(NO)C1(S(=O)(=O)N2CCN(c3ccc(OCCCC(F)(F)F)cc3F)CC2)CCOCC1 [Example 81]			2430	0.261
CCCCOc1ccc(N2CCN(S(=O)(=O)C3(C(=O)NO)CCN(C)CC3)CC2)cc1 [Example 280]	7310	1.02		
O=C(NO)C1(S(=O)(=O)N2CCN(c3ccc(CCC(F)(F)F)cc3)CC2)CCOCC1 [Example 77]			1180	0.84
CCCCOc1ccc(N2CCN(S(=O)(=O)C3(C(=O)NO)CCN(C(=O)CC)CC3)CC2)cc1 [Example 274]	3030	0.484		
CCCCc1ccc(N2CCN(S(=O)(=O)C3(C(=O)NO)CCOCC3)CC2)c(F)c1 [Example 91]			1740	1.64
CCCCOc1ccc(N2CCN(S(=O)(=O)C3(C(=O)NO)CCN(C(=O)c4ccccc4)CC3)CC2)cc1 [Example 255]	5660	0.39		
CC(C)COc1ccc(N2CCN(S(=O)(=O)C3(C(=O)NO)CCOCC3)CC2)cc1Cl [Example 79]			8820	6.62
CCCCCc1ccc(C2CCN(S(=O)(=O)C3(C(=O)NO)CCOCC3)CC2)nc1 [Example 305]	645	0.136		
